For data set [1] the following is noted: cited from earlier work.
Data set [2] is described as follows: pH-dependent solubility of vardenafil hydrochloride trihydrate. Format: physicochemical. The text has this: This great pH-dependence represents a hindrance in particular to the development of pharmaceutical dosage forms with controlled release of active ingredient for oral use, because the medicinal form is exposed on passage through the gastrointestinal (GI) tract to media with pH values varying greatly from about pH 1 to pH 7.5. In order to achieve a sufficient bioavailability from a slow-release medicinal form, a substance must be absorbed if possible over the entire gastrointestinal tract. […] A slowing of the release of active ingredient usually leads in the case of substances subject to a very large first-pass effect to complete loss of the oral bioavailability, because the slow rise in level of the active ingredient means that the concentrations in the portal vein blood remain so low that the capacity of the metabolizing liver enzymes is sufficient for complete degradation.

These results are taken from US20080187588A1, “Formulations With Controlled Release Of Active Ingredient” (Bayer HealthCare AG, priority 2004, published 2008).

SMILES strings stand for the structures. Structures can show the parent of a compound that is named as a salt.

Usually solubility stands for the concentration that dissolves in the medium under given conditions. Lower therefore signals little dissolved substance.

As for `CCCc1nc(C)c2c(=O)[nH]c(-c3cc(S(=O)(=O)N4CCN(CC)CC4)ccc3OCC)nn12` [vardenafil, {2-ethoxy-5-[(4-ethyl-1-piperazinyl)sulphonyl]phenyl}-5-methyl-7-propylimidazo[5,1-f]triazin-4(3H)-one], the absolute oral bioavailability in data set [1] was 15%.
Turning to `CCCc1nc(C)c2c(=O)[nH]c(-c3cc(S(=O)(=O)N4CCN(CC)CC4)ccc3OCC)nn12` [vardenafil hydrochloride trihydrate], the solubility in data set [2] (aqueous buffer, in 0.15 M phosphate buffer of pH 4) was 870 µg/mL; in data set [2] (aqueous buffer, in 0.15 M phosphate buffer of pH 7), 30 µg/mL; in data set [2] (simulated gastric fluid, in 0.1 N hydrochloric acid), 65000 µg/mL.
